# Results as given in a melting point compilation (Tetko et al.).
row,Compound,melting point
1,COc1cc2c(cc1OC)C13CCN4CC5=CCOC6CC(=O)N2C1C6C5CC43 (stereo not drawn),178 °C
2,O=C(CBr)c1cccc(Br)c1,51 to 52 °C
3,Cc1[nH]c(C)c(C)c1C,111 °C
4,CCOC(CCl)OCC,-45 °C
5,COc1cc(O)c2c(=O)c3cc(O)ccc3oc2c1,266 °C
6,COc1cc(C(c2ccc(C)s2)c2ccc(C)s2)c([N+](=O)[O-])cc1OC,120 °C
7,CCCCCCCNC(=O)OCC1OC(OC)C(O)C(O)C1O (stereo not drawn),103 to 105 °C
8,CCOC(=O)c1cc2cc(F)ccc2[nH]1,150 °C
9,CC1(C)OC2CC(=O)OCC23C1CC(=O)C1(C)C3CCC2(C)C(c3ccoc3)OC(=O)C3OC321 (stereo not drawn),298 °C
10,CC1(N)CCC(C(C)(C)N)CC1 (stereo not drawn),-45 °C
11,CC(CCC(=O)O)C1CCC2C3CCC4CC(O)CCC4(C)C3CCC12C (stereo not drawn),186 °C
12,Cc1cc2nc3[nH]c(=O)[nH]c(=O)c3nc2cc1C,300 °C
13,Nc1ncnc2c1ncn2C1CC(O)C(CO)O1 (stereo not drawn),185 to 187 °C
14,O=C(Cl)c1cccnc1Sc1ccc(Cl)cc1,100 to 103 °C
15,CN(c1c(Br)cc(Br)cc1Br)c1c([N+](=O)[O-])cc([N+](=O)[O-])cc1C(F)(F)F,150 °C
16,COC(=O)c1ccc2[nH]ccc2c1,125 °C
17,O=S1(=O)c2ccccc2-c2ccccc21,231 to 236 °C
18,Nc1c(Br)cc(Br)c(Cl)c1C(=O)O,212 to 215 °C
19,CCOC(=O)c1c(N)sc(C)c1C,90 to 91 °C
20,O=C(O)CCOc1ccc2c(c1)[nH]c1ccccc12,184 °C
21,O=Cc1ccc(O)c(OC(F)(F)F)c1,78 °C
22,CC1(C)OC(=O)C(=Cc2ccc([N+](=O)[O-])cc2)C(=O)O1,301 °C
23,CSC(Nc1ccccc1)=C(C#N)C#N,80 °C

row,Compound,melting point
1,CCNc1cc(O)ccc1C,88 °C
2,Cc1ccccc1NN=C1C(=O)CC(C)(C)CC1=O,109 °C
3,CC(C)(C)OC(=O)NN,39 °C
4,CC1(C)C(C=C(Cl)Cl)C1C(=O)OCc1cccc(Oc2ccccc2)c1 (stereo not drawn),34.5 °C
5,CCP(CC)CC,-88 °C
6,COc1cc([N+](=O)[O-])ccc1Br,104 °C
7,Cc1nc(C(=O)O)cs1,148 to 149 °C
8,COc1ccc(C(=O)Cl)cc1,24.5 °C
9,O=Cc1ccc(-n2cncn2)cc1,147 to 149 °C
10,c1ccc(-c2cn3c(n2)SCC3)cc1,147 to 148 °C
11,OCC1=CCN2CCC(O)C12 (stereo not drawn),120 °C
12,O=c1[nH]cc(Br)c(=O)[nH]1,310 °C
13,O=[N+]([O-])C(Br)(Br)Br,10 °C
14,CCCCCCCCCCCN,16.5 °C
15,COc1c(OC)c2occc2c2oc(=O)ccc12,119 °C
16,Cc1nn(C(=O)OC(C)(C)C)c(C)c1C=O,59 to 62 °C
17,OCC1OC(Oc2c[nH]c3ccc(Br)c(Cl)c23)C(O)C(O)C1O (stereo not drawn),249 to 251 °C
18,CC1=CC(C)(C)Nc2ccccc21,26.5 °C
19,O=C(C(Br)Br)C(Br)(Br)Br,79.5 °C
20,CCC(C)C(=O)OC1CCC=C2C=CC(C)C(CCC3CC(O)CC(=O)O3)C21 (stereo not drawn),152 °C
21,Cc1ccc(C(=O)C2=NOC3C(=O)N(c4ccc(C(=O)O)cc4)C(=O)C23)cc1 (stereo not drawn),201 °C
22,CC(C)c1ccccc1C(C)C,-57 °C

# Next, values leading:
row,melting point,Compound
1,159 to 161 °C,Nc1n[nH]c(N)c1Cc1ccc(F)cc1
2,-48.3 °C,C/C=C/CCCCCCCC
3,119 to 121 °C,Cc1ccc2nc(C(F)(F)F)cc(Cl)c2c1[N+](=O)[O-]
4,85 to 86 °C,Cc1nn(-c2ccccc2)c(C)c1C#N
5,83 °C,Nc1ccc(Cl)nc1
6,98 to 100 °C,O=Cc1cccn1-c1ccc(I)cc1
7,213 °C,CC(C=CC=C(C)C=CC1(O)C(C)(C)CCCC1(C)O)=CC=CC=C(C)C=CC(=O)O (stereo not drawn)
8,64.7 °C,COC(=O)[C@H](CC(=O)O)Cc1ccc2ccccc2c1
9,10 °C,Cc1cc2c(cc1C)CCCC2
10,196 °C,Oc1cc(OCc2ccccc2)ccn1
11,230 to 231 °C,COc1cc(-c2n[nH]c(=S)n2/N=C/c2cc(Br)ccc2O)cc(OC)c1OC
12,175 °C,CC(=O)Nc1ccc(OC(=O)c2ccccc2OC(C)=O)cc1
13,84 °C,CC(=O)c1ccc(S(=O)(=O)Cl)cc1
14,101 °C,FC(Cl)(Cl)C(Cl)(Cl)Cl
15,300 °C,Nc1nc(S)nc(S)n1
16,-20 °C,C=C(C)c1ccc(C)cc1
17,72.5 °C,C(=C(c1ccccc1)c1ccccc1)c1ccccc1
18,275 °C,Nc1nn2c(C(F)(F)F)cc(=O)[nH]c2c1/N=N/c1c(Cl)cc(Cl)cc1Cl
19,342 °C,CCOC(=O)c1c(C)[nH]c2cc3[nH]c(C)c(C(=O)OCC)c3cc12
20,-78.8 °C,CCCCCOC(=O)CCCC
21,181 °C,COc1ccc(C(=O)c2nn(-c3ccccc3)/c(=N\N=Cc3ccccc3Cl)s2)cc1
22,101 °C,Nc1cc(-c2cccs2)n[nH]1
23,-110 °C,C1=CCCCC=C1
24,163 to 165 °C,O=S1(=O)CC(O)C(Cl)C1 (stereo not drawn)

row,melting point,Compound
1,112 °C,CCNC(N)=S
2,121 to 122 °C,CC(C)[C@H](NC(=O)OCC1c2ccccc2-c2ccccc21)C(=O)Oc1c(F)c(F)c(F)c(F)c1F
3,77 to 79 °C,CCOC(=O)C(Br)C(Br)c1ccccc1 (stereo not drawn)
4,275 °C,Cc1cc(=O)oc2cc(O)c(O)cc12
5,122 °C,Cc1cc(-c2ccccc2)nnc1NCCN1CCOCC1
6,290 °C,Cc1cc2nc3c(=O)[nH]c(=O)nc-3n(CC(O)C(O)C(O)CO)c2cc1C (stereo not drawn)
7,47 °C,CC(C)(C)OC(=O)N1CCC(C#N)CC1
8,51 °C,O=C(OCCC(OC(=O)c1ccccc1)c1ccccc1)c1ccccc1 (stereo not drawn)
9,89 °C,CC(=O)SCC(Cc1ccccc1)C(=O)NCC(=O)OCc1ccccc1 (stereo not drawn)
10,291 °C,O=C1c2ccccc2C(=O)c2cc3ccccc3cc21
11,310 °C,Oc1cc(O)cc(-c2cc(O)cc(O)c2)c1
12,165 °C,O=C(NC(=S)Nc1ccc(Cl)cc1)c1ccc(-c2ccccc2)cc1
13,294 °C,O=C1c2cc([N+](=O)[O-])ccc2-c2ccc([N+](=O)[O-])cc21
14,151 °C,CN(C)C(=O)Nc1ccc(Oc2ccc(Cl)cc2)cc1
15,52 to 54 °C,CC(C)Cc1ccc(C(=O)C(C)Cl)cc1 (stereo not drawn)
16,175 to 178 °C,O=Cc1ccc(F)c(C(=O)O)c1
17,102 to 103 °C,Cn1ccc2cc(N)ccc21
18,58 to 59 °C,Brc1cccc2cccnc12
19,-83 °C,CCCCCC1CCCC1
20,223 °C,O=c1nn[nH]c2ccccc12
21,161 to 162 °C,CC(C)C1(NC(=O)c2ccccc2)COCOC1=O (racemic)
22,151 to 155 °C,O=C1OC(CO)C(O)C(O)C1O (stereo not drawn)
23,48 °C,Cc1ccc(Cl)c(O)c1F
24,161 °C,CC(=O)N(Nc1ccc(-c2ccc([N+](=O)[O-])cc2)cc1)c1ccccc1
